Measurements taken from ChEMBL document CHEMBL1157938, “Cytotoxicity and inhibition of DNA topoisomerase I of polyhydroxylated triterpenoids and triterpenoid glycosides” (Bioorg Med Chem Lett, 2010).
Calls of active or inactive are those of the source. The rule behind the calls is not given here.

What was measured:
[1] = molecular target: T1, DNA topoisomerase 1 (Homo sapiens) (UniProt P11387); test: Inhibition of human DNA topoisomerase 1-mediated relaxation of supercoiled DNA at 63 to 125 uM
T1 sequence (whole entry): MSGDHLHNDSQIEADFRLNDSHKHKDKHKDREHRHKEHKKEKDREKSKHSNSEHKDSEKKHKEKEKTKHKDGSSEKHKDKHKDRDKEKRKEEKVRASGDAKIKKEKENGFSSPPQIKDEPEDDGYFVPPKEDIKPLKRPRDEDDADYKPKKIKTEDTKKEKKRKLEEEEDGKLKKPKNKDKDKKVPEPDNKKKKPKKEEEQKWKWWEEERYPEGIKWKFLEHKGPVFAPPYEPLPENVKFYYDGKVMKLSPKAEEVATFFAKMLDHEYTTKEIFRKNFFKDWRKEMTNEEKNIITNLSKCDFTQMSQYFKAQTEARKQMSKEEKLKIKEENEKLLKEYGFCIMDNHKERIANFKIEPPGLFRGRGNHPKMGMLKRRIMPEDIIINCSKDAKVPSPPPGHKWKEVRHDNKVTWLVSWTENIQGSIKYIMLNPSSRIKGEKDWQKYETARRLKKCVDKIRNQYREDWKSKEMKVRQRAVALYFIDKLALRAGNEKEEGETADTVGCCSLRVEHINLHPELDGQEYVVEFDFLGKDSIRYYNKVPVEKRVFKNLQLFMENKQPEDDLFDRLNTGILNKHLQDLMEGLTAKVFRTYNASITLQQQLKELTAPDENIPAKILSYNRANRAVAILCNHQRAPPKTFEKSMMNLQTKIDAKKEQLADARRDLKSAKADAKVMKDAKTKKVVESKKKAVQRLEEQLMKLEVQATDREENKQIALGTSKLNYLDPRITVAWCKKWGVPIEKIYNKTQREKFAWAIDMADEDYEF

[2] = molecular target: T2, DNA topoisomerase 1 (Homo sapiens, UniProt P11387); test: Inhibition of human DNA topoisomerase 1 at free enzyme state
T2 sequence (P11387 whole entry): T1 sequence (whole entry)

[3] = molecular target: T1, DNA topoisomerase 1 (Homo sapiens); test: Inhibition of human DNA topoisomerase 1 assessed as prevention of DNA-enzyme complex formation
[4] = molecular target: T1, DNA topoisomerase 1 (Homo sapiens); test: Inhibition of human DNA topoisomerase 1 assessed as stabilize DNA-enzyme covalent complex
[5] = molecular target: T2, DNA topoisomerase 1; test: Inhibition of human DNA topoisomerase 1-mediated relaxation of supercoiled DNA by gel electrophoresis
[6] = molecular target: DNA topoisomerase 2-alpha (Homo sapiens, UniProt P11388); test: Inhibition of human DNA topoisomerase 2-mediated relaxation of supercoiled DNA by gel electrophoresis
Sequence of DNA topoisomerase 2-alpha (P11388 whole entry): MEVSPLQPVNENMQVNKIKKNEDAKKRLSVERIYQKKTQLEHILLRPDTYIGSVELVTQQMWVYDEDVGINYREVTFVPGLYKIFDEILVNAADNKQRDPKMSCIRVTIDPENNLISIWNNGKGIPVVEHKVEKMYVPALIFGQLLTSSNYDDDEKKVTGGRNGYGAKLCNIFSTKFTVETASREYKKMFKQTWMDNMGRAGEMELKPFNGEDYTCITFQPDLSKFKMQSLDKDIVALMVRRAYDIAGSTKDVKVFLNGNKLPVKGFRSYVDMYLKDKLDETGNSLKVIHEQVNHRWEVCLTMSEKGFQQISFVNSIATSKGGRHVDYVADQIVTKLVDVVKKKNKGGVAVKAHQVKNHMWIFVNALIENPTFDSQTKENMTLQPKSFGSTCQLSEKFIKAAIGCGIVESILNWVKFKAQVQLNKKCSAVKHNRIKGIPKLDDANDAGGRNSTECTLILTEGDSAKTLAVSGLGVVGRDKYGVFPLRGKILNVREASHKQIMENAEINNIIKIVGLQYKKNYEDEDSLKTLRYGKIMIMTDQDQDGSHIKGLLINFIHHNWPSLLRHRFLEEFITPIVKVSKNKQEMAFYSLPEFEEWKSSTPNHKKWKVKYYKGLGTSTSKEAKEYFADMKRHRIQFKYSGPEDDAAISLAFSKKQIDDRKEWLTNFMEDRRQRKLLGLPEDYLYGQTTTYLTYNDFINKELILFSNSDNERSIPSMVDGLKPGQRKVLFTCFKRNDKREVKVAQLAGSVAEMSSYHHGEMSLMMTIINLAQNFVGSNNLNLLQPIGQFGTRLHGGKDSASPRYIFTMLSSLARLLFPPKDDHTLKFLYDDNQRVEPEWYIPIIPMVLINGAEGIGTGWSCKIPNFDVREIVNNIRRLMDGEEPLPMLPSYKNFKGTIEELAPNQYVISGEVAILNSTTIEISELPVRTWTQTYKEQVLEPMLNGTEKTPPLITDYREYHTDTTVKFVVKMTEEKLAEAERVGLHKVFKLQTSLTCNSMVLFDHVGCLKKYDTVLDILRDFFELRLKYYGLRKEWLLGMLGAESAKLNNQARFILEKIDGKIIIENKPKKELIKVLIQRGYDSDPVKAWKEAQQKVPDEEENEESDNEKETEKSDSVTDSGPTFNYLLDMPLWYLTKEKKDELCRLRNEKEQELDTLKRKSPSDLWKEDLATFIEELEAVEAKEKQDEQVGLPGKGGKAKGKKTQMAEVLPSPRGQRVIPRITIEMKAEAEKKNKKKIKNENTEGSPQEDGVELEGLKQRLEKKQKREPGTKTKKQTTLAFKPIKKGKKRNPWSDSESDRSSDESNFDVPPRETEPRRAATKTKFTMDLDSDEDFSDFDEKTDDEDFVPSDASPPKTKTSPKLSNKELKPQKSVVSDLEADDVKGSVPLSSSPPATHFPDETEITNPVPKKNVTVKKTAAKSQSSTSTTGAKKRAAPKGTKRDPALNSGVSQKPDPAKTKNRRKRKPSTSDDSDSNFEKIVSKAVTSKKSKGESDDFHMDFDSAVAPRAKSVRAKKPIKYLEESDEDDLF

[7] = system: A549; test: Cytotoxicity against human A549 cells after 48 hrs by WST8 assay; format: functional; settings: A549, 48 h
[8] = system: PC-3; test: Cytotoxicity against human PC3 cells after 48 hrs by WST8 assay; format: functional; settings: PC-3, 48 h
[9] = system: HL-60; test: Cytotoxicity against human HL60 cells after 48 hrs by WST8 assay; format: functional; settings: HL-60, 48 h
[10] = system: PANC-1; test: Cytotoxicity against human PANC1 cells after 48 hrs by WST8 assay; format: functional; settings: PANC-1, 48 h
[11] = Cytotoxicity against human MRC5 cells after 48 hrs by WST8 assay; format: cell-based
[12] = molecular target: T1, DNA topoisomerase 1 (Homo sapiens); test: Inhibition of human DNA topoisomerase 1 assessed as intercalate into DNA at 312 uM
[13] = molecular target: T1, DNA topoisomerase 1 (Homo sapiens); test: Inhibition of human DNA topoisomerase 1-mediated relaxation of supercoiled DNA at 312 uM
[14] = system: A549; test: Cytotoxicity against human A549 cells at 25 uM after 48 hrs by WST8 assay; format: functional, cell-based
[15] = system: PC-3; test: Cytotoxicity against human PC3 cells at 25 uM after 48 hrs by WST8 assay; format: functional, cell-based
[16] = system: HL-60; test: Cytotoxicity against human HL60 cells at 25 uM after 48 hrs by WST8 assay; format: functional, cell-based
[17] = system: PANC-1; test: Cytotoxicity against human PANC1 cells at 25 uM after 48 hrs by WST8 assay; format: functional, cell-based
[18] = system: MRC5; test: Cytotoxicity against human MRC5 cells at 25 uM after 48 hrs by WST8 assay; format: cell-based; settings: mrc5, 48 h

| IC50 [5] [µM] | IC50 [6] [µM] | Activity [12] | inhibition [13] | Compound | inhibition [1] | IC50 [2] [µM] | inhibition [3] | inhibition [4] | GI50 [7] [µM] | GI50 [8] [µM] | GI50 [9] [µM] | GI50 [10] [µM] | GI50 at 48 h [11] [µM] | growth inhibition (GI) [14] | growth inhibition (GI) [15] | growth inhibition (GI) [16] | growth inhibition (GI) [17] | growth inhibition (GI) [18] |
| --- | --- | --- | --- | --- | --- | --- | --- | --- | --- | --- | --- | --- | --- | --- | --- | --- | --- | --- |
| > 250 | > 250 |  | inactive | C/C=C(/C)C(=O)O[C@H]1[C@H](O)[C@]2(CO)[C@H](O)[C@H](O)[C@]3(C)C(=CC[C@@H]4[C@@]5(C)CC[C@H](O[C@@H]6O[C@H](C(=O)O)[C@@H](O)[C@H](O[C@@H]7OC[C@@H](O)[C@H](O)[C@H]7O)[C@H]6O[C@@H]6O[C@H](CO)[C@@H](O)[C@H](O)[C@H]6O)C(C)(C)[C@@H]5CC[C@]43C)[C@@H]2CC1(C)C [ERYNGIOSIDE 94A] |  |  |  |  | 7.34 | 7.99 | 9.38 |  | 8.51 |  |  |  | inactive |  |
|  |  |  | inactive | CC1(C)C=C2[C@H]3CC[C@@H]4[C@@]5(C)CC[C@H](O)C(C)(C)[C@@H]5CC[C@@]4(C)[C@]3(C)CC[C@@]2(C)CC1 [GERMANICOL] |  |  |  |  |  |  |  |  |  | inactive | inactive | inactive | inactive | Not Active |
| > 250 | > 250 |  |  | C/C=C(/CC)C(=O)O[C@H]1[C@H](OC(C)=O)[C@]2(CO)[C@H](O)[C@H](O)[C@]3(C)C(=CC[C@@H]4[C@@]5(C)CC[C@H](O[C@@H]6O[C@H](C(=O)O)[C@@H](O)[C@H](O[C@@H]7OC[C@H](O)[C@H](O)[C@H]7O)[C@H]6O[C@@H]6O[C@H](CO)[C@@H](O)[C@H](O)[C@H]6O)C(C)(C)[C@@H]5CC[C@]43C)[C@@H]2CC1(C)C [SANICULASAPONIN III] |  |  |  |  | 4.73 | 8.51 | 7.11 | 16 | 3.54 |  |  |  |  |  |
|  |  |  | inactive | CC(=O)O[C@H]1CC[C@]2(C)[C@H]3CC=C4[C@@H]5CC(C)(C)CC[C@]5(C)CC[C@@]4(C)[C@]3(C)CC[C@H]2C1(C)C [beta-AMYRIN ACETATE] |  |  |  |  |  |  |  |  |  | inactive | inactive | inactive | inactive | Not Active |

More lines, now with the values behind:

| Compound | IC50 [5] [µM] | IC50 [6] [µM] | Activity [12] | inhibition [13] | inhibition [1] | IC50 [2] [µM] | inhibition [3] | inhibition [4] | GI50 [7] [µM] | GI50 [8] [µM] | GI50 [9] [µM] | GI50 [10] [µM] | GI50 at 48 h [11] [µM] | growth inhibition (GI) [14] | growth inhibition (GI) [15] | growth inhibition (GI) [16] | growth inhibition (GI) [17] | growth inhibition (GI) [18] |
| --- | --- | --- | --- | --- | --- | --- | --- | --- | --- | --- | --- | --- | --- | --- | --- | --- | --- | --- |
| C/C=C(/C)C(=O)O[C@H]1[C@H](OC(=O)/C(C)=C\C)[C@]2(CO)[C@H](O)C[C@]3(C)C(=CC[C@@H]4[C@@]5(C)CC[C@H](O[C@@H]6O[C@H](C(=O)O)[C@@H](O)[C@H](O[C@@H]7O[C@@H](CO)[C@H](O)[C@H]7O)[C@H]6O[C@@H]6O[C@H](CO)[C@@H](O)[C@H](O)[C@H]6O)[C@](C)(CO)[C@@H]5CC[C@]43C)[C@@H]2CC1(C)C | 53 | > 250 |  |  | Active | 23.8 | Active | inactive | 6.36 | 1.6 | 1.94 | 11.1 | 5.5 |  |  |  |  |  |
| C/C=C(/C)C(=O)O[C@H]1[C@H](OC(=O)/C(C)=C\C)[C@]2(CO)[C@H](O)C[C@]3(C)C(=CC[C@@H]4[C@@]5(C)CC[C@H](O)[C@](C)(CO)[C@@H]5CC[C@]43C)[C@@H]2CC1(C)C | > 250 | > 250 |  |  |  |  |  |  | 1.94 | 2.39 | 2.72 | 4.63 | 1.65 |  |  |  |  |  |
| C/C=C(/C)C(=O)O[C@H]1[C@H](OC(=O)/C(C)=C\C)[C@]2(CO)[C@H](O)[C@H](O)[C@]3(C)C(=CC[C@@H]4[C@@]5(C)CC[C@H](O[C@@H]6O[C@H](C(=O)O)[C@@H](O)[C@H](O[C@@H]7O[C@@H](CO)[C@H](O)[C@H]7O)[C@H]6O[C@@H]6O[C@H](CO)[C@H](O)[C@H](O)[C@H]6O)C(C)(C)[C@@H]5CC[C@]43C)[C@@H]2CC1(C)C | 32.7 | > 250 |  |  | Active | 23.8 | Active | inactive | 4.58 | 14.3 | 16.9 | 21.5 | 5.26 |  |  |  |  |  |
| C/C=C(/C)C(=O)O[C@H]1[C@H](OC(=O)C(C)CC)[C@]2(CO)[C@H](O)[C@H](O)[C@]3(C)C(=CC[C@@H]4[C@@]5(C)CC[C@H](O)C(C)(C)[C@@H]5CC[C@]43C)[C@@H]2CC1(C)C (stereo partly specified) | > 250 | > 250 |  |  |  |  |  |  | 5.37 | 12.5 | 4.21 | 12.8 | 6.53 |  |  |  |  |  |
| C/C=C(/C)C(=O)O[C@H]1[C@H](O)[C@]2(CO)[C@H](O)C[C@]3(C)C(=CC[C@@H]4[C@@]5(C)CC[C@H](O[C@@H]6O[C@H](C(=O)O)[C@@H](O)[C@H](O[C@@H]7O[C@@H](CO)[C@H](O)[C@H]7O)[C@H]6O[C@@H]6O[C@H](CO)[C@@H](O)[C@H](O)[C@H]6O)[C@](C)(CO)[C@@H]5CC[C@]43C)[C@@H]2CC1(C)C [AESCULIOSIDE IIB] |  |  | Active | inactive |  |  |  |  |  |  |  |  |  | inactive | inactive | inactive | inactive | Not Active |
| C/C=C(/C)C(=O)O[C@H]1[C@H](OC(C)=O)[C@]2(CO)[C@H](O)C[C@]3(C)C(=CC[C@@H]4[C@@]5(C)CC[C@H](O[C@@H]6O[C@H](C(=O)O)[C@@H](O)[C@H](O[C@@H]7O[C@@H](CO)[C@H](O)[C@H]7O)[C@H]6O[C@@H]6O[C@H](CO)[C@@H](O)[C@H](O)[C@H]6O)[C@](C)(CO)[C@@H]5CC[C@]43C)[C@@H]2CC1(C)C [AESCULIOSIDE III] | > 250 | > 250 |  |  |  |  |  |  | 20.1 | 9.54 | 8.37 | 14.8 | 12.8 |  |  |  |  |  |
| C/C=C(/C)C(=O)O[C@H]1[C@H](OC(C)=O)[C@]2(CO)[C@H](O)[C@H](O)[C@]3(C)C(=CC[C@@H]4[C@@]5(C)CC[C@H](O[C@@H]6O[C@H](C(=O)O)[C@@H](O)[C@H](O[C@@H]7OC[C@@H](O)[C@H](O)[C@H]7O)[C@H]6O[C@@H]6O[C@H](CO)[C@@H](O)[C@H](O)[C@H]6O)C(C)(C)[C@@H]5CC[C@]43C)[C@@H]2CC1(C)C [ERYNGIIOSIDE J] | > 250 | > 250 |  |  |  |  |  |  | 4.3 | 5.08 | 7.36 | 11.5 | 5.61 |  |  |  |  |  |
| C/C=C(/C)C(=O)O[C@H]1[C@H](OC(C)=O)[C@]2(CO)[C@H](O)C[C@]3(C)C(=CC[C@@H]4[C@@]5(C)CC[C@H](O[C@@H]6O[C@H](C(=O)O)[C@@H](O)[C@H](O[C@@H]7OC[C@H](O)[C@H](O)[C@H]7O)[C@H]6O[C@@H]6O[C@H](CO)[C@@H](O)[C@H](O)[C@H]6O)C(C)(C)[C@@H]5CC[C@]43C)[C@@H]2CC1(C)C [ERYNGIIOSIDE L] | > 250 | > 250 |  |  |  |  |  |  | 8.35 | 11.3 | 8.41 | 13 | 8.71 |  |  |  |  |  |
